In patent publication US20110166173A1, “3,5-DISUBSTUTUTED 1H-PYRROLO [2,3-B] PYRIDINES AS JNK INHIBITORS” (Eisai Co., Ltd., priority 2004, published 2011):
pIC50: −log10 of the molar value.

Each molecule was assayed against JNK3 (Homo sapiens, UniProt P53779) (assay: JNK3 SPA assay (phosphorylation of GST-c-Jun)). Settings: Scintillation proximity assay, GST-c-Jun substrate, 3.33 μM ATP, 30 minutes at room temperature.
Type: biochemical
Procedure: JNK1, JNK2, JNK3—SPA Assay • 1. Compound is dissolved in DMSO to a convenient concentration and this is diluted in 10% DMSO to a five times concentrate of the desired starting concentration (frequently 1:100). • 2. 10 μl of 500 mM EDTA is added to alternative wells of the Opti-plate row, which will receive kinase reaction plus DMSO. This creates the negative control. • 3. For the JNK2 and JNK3 assay, compounds are prepared in six 2-fold dilutions with water and each concentration is tested in duplicate. For the JNK1 assay compounds are prepared in four 5-fold dilutions with water which are tested in triplicate. Controls are treated identically. • 4. 20 μl per well of each compound concentration is transferred to an Opti-plate, in duplicate. • 5. 30 μl (JNK2/3 SPA) or 50 μl (JNK1 SPA) of substrate solution (25 mM HEPES pH 7.5, 10 mM magnesium acetate with 3.33 μM ATP (JNK2/3) or 2 μM ATP (JNK1), approximately 7.5 kBq [γ-^33P] ATP, GST-c-Jun, in water) is added to each well. • 6. 50 μl (JNK2/3 SPA) or 30 μl (JNK1 SPA) of kinase solution (JNK in 25 mM HEPES pH 7.5, 10 mM Mg Acetate) is added to each well.
• 7. The plate is incubated for 30 minutes at room temperature. • 8. 100 μl of bead/stop solution is added to each well (5 mg/ml glutathione-PVT-SPA beads, 40 mM ATP in PBS). • 9. Plates are sealed and incubated for 30 minutes at room temperature, centrifuged for 10 minutes at 2500 g and counted. • 10. The IC50 values are calculated as the concentration of the compound being tested at which the phosphorylation of c-Jun is decreased to 50% of the control value.

JNK3, sequence (P53779 whole entry): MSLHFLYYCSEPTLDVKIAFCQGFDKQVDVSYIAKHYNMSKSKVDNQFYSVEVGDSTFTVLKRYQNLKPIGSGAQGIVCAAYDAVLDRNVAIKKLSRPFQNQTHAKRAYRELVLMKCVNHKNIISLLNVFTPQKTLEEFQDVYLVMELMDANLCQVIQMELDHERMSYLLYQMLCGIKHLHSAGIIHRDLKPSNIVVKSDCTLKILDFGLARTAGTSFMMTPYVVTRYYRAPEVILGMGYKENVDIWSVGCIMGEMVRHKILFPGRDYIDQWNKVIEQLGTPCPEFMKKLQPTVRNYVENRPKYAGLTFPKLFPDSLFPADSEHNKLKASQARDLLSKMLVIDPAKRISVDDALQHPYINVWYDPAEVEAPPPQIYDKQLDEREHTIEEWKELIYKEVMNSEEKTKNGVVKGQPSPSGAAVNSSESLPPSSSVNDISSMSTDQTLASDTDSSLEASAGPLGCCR

Row | Compound | pIC50
1 | O=C(Nc1ccc2[nH]ccc2c1)c1cnc2[nH]cc(-c3ccoc3)c2c1 | > 6.00
2 | CN(C)c1ccc(C(=O)c2cnc3[nH]cc(-c4cnn(C)c4)c3c2)cc1 | > 6.30
3 | O=C(NCCc1c[nH]c2ccccc12)c1cnc2[nH]cc(-c3ccoc3)c2c1 | > 6.30
4 | O=C(c1cnc2[nH]cc(-c3ccoc3)c2c1)N1CCCC1 | > 6.30
5 | O=C(c1cnc2[nH]cc(-c3ccoc3)c2c1)N1CCc2ccccc2C1 | > 6.30
